Assay results: patent US12281149B2, “Modulators of G-protein coupled receptors” (priority 2021, dated 2025)
*1 amine or outer side, *2 acyl side, *3 side chain or, on linkers, in order; H or OH if unused. Where a SMILES comes first, the peptide text is derived from it. Side-chain parts run from the residue outwards. [ ]: non-standard residue; d: D form. The star is where a group is joined. C20 diacid = O=C(O)CCCCCCCCCCCCCCCCCCC(=O)*; γGlu = O=C(O)[C@H](CCC(=O)[*:2])N[*:1]; X51 = COc1cccc(C2(C(=O)*)CCCC2)c1; X44 = COc1ccc(C(C)(C)C(=O)*)cc1; X15 = O=C(C1(c2cccc(F)c2)CC1)*; X11 = C[C@@H](C(=O)*)c1ccccc1; X78 = CC(C)(C(=O)*)C1CCCCC1; AEEA = NCCOCCOCC(=O)O; Aib = CC(C)(N)C(=O)O; βAla = NCCC(=O)O

Assays:
Type in all cases: cell-based
GLP-1 receptor [1] = target: T1, GLP-1 receptor (Homo sapiens, UniProt P43220); assay: HitHunter cAMP assay, GLP-1 receptor; settings: for EC50: CHO cells stably expressing human GLP-1 receptor, cAMP accumulation, 30 min, read-out: EC50 GLP-1R; for Emax: CHO cells, cAMP, normalized to maximum signal from GLP-1 (high) and DMSO (low), read-out: Emax GLP-1R
T1 sequence (P43220 24-463): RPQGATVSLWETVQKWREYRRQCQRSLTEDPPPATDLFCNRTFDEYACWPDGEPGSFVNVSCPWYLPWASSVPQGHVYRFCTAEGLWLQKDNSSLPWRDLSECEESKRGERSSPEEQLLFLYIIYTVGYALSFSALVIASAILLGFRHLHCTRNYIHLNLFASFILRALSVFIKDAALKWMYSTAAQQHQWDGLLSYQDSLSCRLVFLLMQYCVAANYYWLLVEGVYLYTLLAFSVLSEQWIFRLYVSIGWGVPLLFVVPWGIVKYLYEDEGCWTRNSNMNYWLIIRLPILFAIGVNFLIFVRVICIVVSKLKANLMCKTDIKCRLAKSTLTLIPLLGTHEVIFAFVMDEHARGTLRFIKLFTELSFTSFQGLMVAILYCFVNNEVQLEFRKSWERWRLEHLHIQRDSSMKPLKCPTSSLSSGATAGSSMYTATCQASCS

GIP receptor [2] = target: T2, GIP receptor (Homo sapiens, UniProt P48546); assay: HitHunter cAMP assay, GIP receptor; settings: for EC50: CHO cells stably expressing GIP receptor, cAMP accumulation, 30 min, read-out: EC50 GIP-1R; for Emax: CHO cells, cAMP, normalized to maximum signal from GIP (high) and DMSO (low), read-out: Emax GIP-1R
T2 sequence (P48546 22-466): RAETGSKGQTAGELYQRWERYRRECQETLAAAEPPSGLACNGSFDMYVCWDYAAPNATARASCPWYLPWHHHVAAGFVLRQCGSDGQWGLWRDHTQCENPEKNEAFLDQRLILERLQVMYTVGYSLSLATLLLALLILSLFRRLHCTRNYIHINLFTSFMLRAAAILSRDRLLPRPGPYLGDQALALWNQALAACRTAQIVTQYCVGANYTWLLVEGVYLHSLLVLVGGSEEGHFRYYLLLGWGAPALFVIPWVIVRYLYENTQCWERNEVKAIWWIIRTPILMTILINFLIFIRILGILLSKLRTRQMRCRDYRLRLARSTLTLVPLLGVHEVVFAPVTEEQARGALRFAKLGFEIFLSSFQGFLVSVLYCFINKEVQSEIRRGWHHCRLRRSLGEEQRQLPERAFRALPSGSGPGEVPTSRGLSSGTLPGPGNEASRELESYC

GIP receptor [3] = target: T2, GIP receptor; assay: PathHunter β-arrestin assay, GIP receptor; parameters: host or cells: PathHunter CHO-K1 GIPR β-Arrestin Cell Line; settings: β-arrestin-2 recruitment, PathHunter CHO-K1 GIPR β-Arrestin Cell Line, 90 min at 37° C.; normalized to GIP; read-out: GIPR β Arrestin EC50
GLP-1 receptor [4] = target: T1, GLP-1 receptor; assay: PathHunter β-arrestin assay, GLP-1 receptor; parameters: host or cells: PathHunter CHO-K1 GLP1R β-Arrestin Cell Line; settings: β-arrestin-2 recruitment, PathHunter CHO-K1 GLP1R β-Arrestin Cell Line, 90 min at 37° C.; normalized to GLP-1; read-out: GLP-1R β Arrestin EC50

| SMILES | EC50 (GLP-1 receptor [1]) [nM] | Emax (GLP-1 receptor [1]) [%] | EC50 (GIP receptor [2]) [nM] | Emax (GIP receptor [2]) [%] | EC50 (GIP receptor [3]) [nM] | EC50 (GLP-1 receptor [4]) [nM] |
| --- | --- | --- | --- | --- | --- | --- |
| CC[C@H](C)[C@H](NC(=O)[C@H](CC(C)C)NC(=O)[C@H](Cc1c[nH]c2ccccc12)NC(=O)[C@H](CCC(N)=O)NC(=O)[C@@H](NC(=O)[C@H](Cc1ccccc1)NC(=O)[C@H](C)NC(=O)[C@H](CCCCNC(=O)COCCOCCNC(=O)COCCOCCNC(=O)CC[C@H](NC(=O)CCCCCCCCCCCCCCCCCCC(=O)O)C(=O)O)NC(=O)[C@H](CCC(N)=O)NC(=O)[C@H](C)NC(=O)[C@@H](NC(=O)[C@H](CCCCN)NC(=O)[C@H](CC(=O)O)NC(=O)[C@H](CC(C)C)NC(=O)C(C)(C)NC(=O)[C@@H](NC(=O)[C@H](CO)NC(=O)[C@H](Cc1ccc(O)cc1)NC(=O)[C@H](CC(=O)O)NC(=O)[C@H](CO)NC(=O)[C@@H](NC(=O)[C@H](Cc1ccccc1)NC(=O)[C@@H](NC(=O)CNC(=O)[C@H](CCC(=O)O)NC(=O)CCNC(=O)C(C)(C)c1ccc(OC)cc1)[C@@H](C)O)[C@@H](C)O)[C@@H](C)CC)[C@@H](C)CC)C(C)C)C(=O)N[C@@H](C)C(=O)NCC(=O)NCC(=O)N1CCC[C@H]1C(=O)N[C@@H](CO)C(=O)N[C@@H](CO)C(=O)NCC(=O)N[C@@H](C)C(=O)N1CCC[C@H]1C(=O)N1CCC[C@H]1C(=O)N1CCC[C@H]1C(=O)N[C@@H](CO)C(N)=O [Compound 203] ({X44-βAla}-EGTFTSDYSI[Aib]LDKIAQK([AEEA-AEEA-γGlu-C20 diacid])AFVQWLIAGGPSSGAPPPS-NH2) | 0.1 to 1 | 103 | 1 to 10 | 103 | < 1000 | > 1000 |
| CC[C@H](C)[C@H](NC(=O)[C@H](CC(C)C)NC(=O)[C@H](Cc1c[nH]c2ccccc12)NC(=O)[C@H](CCC(N)=O)NC(=O)[C@@H](NC(=O)[C@H](Cc1ccccc1)NC(=O)[C@H](C)NC(=O)[C@H](CCCCNC(=O)COCCOCCNC(=O)COCCOCCNC(=O)CC[C@H](NC(=O)CCCCCCCCCCCCCCCCCCC(=O)O)C(=O)O)NC(=O)[C@H](CCC(N)=O)NC(=O)[C@H](C)NC(=O)[C@@H](NC(=O)[C@H](CCCCN)NC(=O)[C@H](CC(=O)O)NC(=O)[C@H](CC(C)C)NC(=O)C(C)(C)NC(=O)[C@@H](NC(=O)[C@H](CO)NC(=O)[C@H](Cc1ccc(O)cc1)NC(=O)[C@H](CC(=O)O)NC(=O)[C@H](CO)NC(=O)[C@@H](NC(=O)[C@H](Cc1ccccc1)NC(=O)[C@@H](NC(=O)CNC(=O)[C@H](CCC(=O)O)NC(=O)CCNC(=O)[C@H](C)c1ccccc1)[C@@H](C)O)[C@@H](C)O)[C@@H](C)CC)[C@@H](C)CC)C(C)C)C(=O)N[C@@H](C)C(=O)NCC(=O)NCC(=O)N1CCC[C@H]1C(=O)N[C@@H](CO)C(=O)N[C@@H](CO)C(=O)NCC(=O)N[C@@H](C)C(=O)N1CCC[C@H]1C(=O)N1CCC[C@H]1C(=O)N1CCC[C@H]1C(=O)N[C@@H](CO)C(N)=O [Compound 204] ({X11-βAla}-EGTFTSDYSI[Aib]LDKIAQK([AEEA-AEEA-γGlu-C20 diacid])AFVQWLIAGGPSSGAPPPS-NH2) | 1 to 10 | 106 | 10 to 100 | 105 | > 1000 | > 1000 |
| CC[C@H](C)[C@H](NC(=O)[C@H](CC(C)C)NC(=O)[C@H](Cc1c[nH]c2ccccc12)NC(=O)[C@H](CCC(N)=O)NC(=O)[C@@H](NC(=O)[C@H](Cc1ccccc1)NC(=O)[C@H](C)NC(=O)[C@H](CCCCNC(=O)COCCOCCNC(=O)COCCOCCNC(=O)CC[C@H](NC(=O)CCCCCCCCCCCCCCCCCCC(=O)O)C(=O)O)NC(=O)[C@H](CCC(N)=O)NC(=O)[C@H](C)NC(=O)[C@@H](NC(=O)[C@H](CCCCN)NC(=O)[C@H](CC(=O)O)NC(=O)[C@H](CC(C)C)NC(=O)C(C)(C)NC(=O)[C@@H](NC(=O)[C@H](CO)NC(=O)[C@H](Cc1ccc(O)cc1)NC(=O)[C@H](CC(=O)O)NC(=O)[C@H](CO)NC(=O)[C@@H](NC(=O)[C@H](Cc1ccccc1)NC(=O)[C@@H](NC(=O)CNC(=O)[C@H](CCC(=O)O)NC(=O)CCNC(=O)C(C)(C)C1CCCCC1)[C@@H](C)O)[C@@H](C)O)[C@@H](C)CC)[C@@H](C)CC)C(C)C)C(=O)N[C@@H](C)C(=O)NCC(=O)NCC(=O)N1CCC[C@H]1C(=O)N[C@@H](CO)C(=O)N[C@@H](CO)C(=O)NCC(=O)N[C@@H](C)C(=O)N1CCC[C@H]1C(=O)N1CCC[C@H]1C(=O)N1CCC[C@H]1C(=O)N[C@@H](CO)C(N)=O [Compound 205] ({X78-βAla}-EGTFTSDYSI[Aib]LDKIAQK([AEEA-AEEA-γGlu-C20 diacid])AFVQWLIAGGPSSGAPPPS-NH2) | 1 to 10 | 99 | 10 to 100 | 99 | > 1000 | > 1000 |
| CC[C@H](C)[C@H](NC(=O)[C@H](CC(C)C)NC(=O)[C@H](Cc1c[nH]c2ccccc12)NC(=O)[C@H](CCC(N)=O)NC(=O)[C@@H](NC(=O)[C@H](Cc1ccccc1)NC(=O)[C@H](C)NC(=O)[C@H](CCCCNC(=O)COCCOCCNC(=O)COCCOCCNC(=O)CC[C@H](NC(=O)CCCCCCCCCCCCCCCCCCC(=O)O)C(=O)O)NC(=O)[C@H](CCC(N)=O)NC(=O)[C@H](C)NC(=O)[C@@H](NC(=O)[C@H](CCCCN)NC(=O)[C@H](CC(=O)O)NC(=O)[C@H](CC(C)C)NC(=O)C(C)(C)NC(=O)[C@@H](NC(=O)[C@H](CO)NC(=O)[C@H](Cc1ccc(O)cc1)NC(=O)[C@H](CC(=O)O)NC(=O)[C@H](CO)NC(=O)[C@@H](NC(=O)[C@H](Cc1ccccc1)NC(=O)[C@@H](NC(=O)CNC(=O)[C@H](CCC(=O)O)NC(=O)CCNC(=O)C1(c2cccc(F)c2)CC1)[C@@H](C)O)[C@@H](C)O)[C@@H](C)CC)[C@@H](C)CC)C(C)C)C(=O)N[C@@H](C)C(=O)NCC(=O)NCC(=O)N1CCC[C@H]1C(=O)N[C@@H](CO)C(=O)N[C@@H](CO)C(=O)NCC(=O)N[C@@H](C)C(=O)N1CCC[C@H]1C(=O)N1CCC[C@H]1C(=O)N1CCC[C@H]1C(=O)N[C@@H](CO)C(N)=O [Compound 206] ({X15-βAla}-EGTFTSDYSI[Aib]LDKIAQK([AEEA-AEEA-γGlu-C20 diacid])AFVQWLIAGGPSSGAPPPS-NH2) | 1 to 10 | 98 | 10 to 100 | 106 | > 1000 | > 1000 |
| CC[C@H](C)[C@H](NC(=O)[C@H](CC(C)C)NC(=O)[C@H](Cc1c[nH]c2ccccc12)NC(=O)[C@H](CCC(N)=O)NC(=O)[C@@H](NC(=O)[C@H](Cc1ccccc1)NC(=O)[C@H](C)NC(=O)[C@H](CCCCNC(=O)COCCOCCNC(=O)COCCOCCNC(=O)CC[C@H](NC(=O)CCCCCCCCCCCCCCCCCCC(=O)O)C(=O)O)NC(=O)[C@H](CCC(N)=O)NC(=O)[C@H](C)NC(=O)[C@@H](NC(=O)[C@H](CCCCN)NC(=O)[C@H](CC(=O)O)NC(=O)[C@H](CC(C)C)NC(=O)C(C)(C)NC(=O)[C@@H](NC(=O)[C@H](CO)NC(=O)[C@H](Cc1ccc(O)cc1)NC(=O)[C@H](CC(=O)O)NC(=O)[C@H](CO)NC(=O)[C@@H](NC(=O)[C@H](Cc1ccccc1)NC(=O)[C@@H](NC(=O)CNC(=O)[C@H](CCC(=O)O)NC(=O)CCNC(=O)C1(c2cccc(OC)c2)CCCC1)[C@@H](C)O)[C@@H](C)O)[C@@H](C)CC)[C@@H](C)CC)C(C)C)C(=O)N[C@@H](C)C(=O)NCC(=O)NCC(=O)N1CCC[C@H]1C(=O)N[C@@H](CO)C(=O)N[C@@H](CO)C(=O)NCC(=O)N[C@@H](C)C(=O)N1CCC[C@H]1C(=O)N1CCC[C@H]1C(=O)N1CCC[C@H]1C(=O)N[C@@H](CO)C(N)=O [Compound 207] ({X51-βAla}-EGTFTSDYSI[Aib]LDKIAQK([AEEA-AEEA-γGlu-C20 diacid])AFVQWLIAGGPSSGAPPPS-NH2) | 1 to 10 | 97 | 1 to 10 | 109 | > 1000 | > 1000 |
